Results taken from patent US10640507B2, “PBD antibacterial agents” (KING'S COLLEGE LONDON, priority 2015, dated 2020).
Values after ≈ are worked out from the molar mass of the structure shown.

How the values were obtained:
[1] = system: A. baumannii - NCTC 17978; assay: Time kill kinetics; format: cell-based; settings: drug at 4×MIC
Description: 1. Grow bacteria overnight.
2. Subculture into an autoclaved conical flask containing 10 ml of TSB to an OD of 0.01 (˜1×10^7 Cfu/ml for KP-M6).
4. Take aliquots (100 μl) at timepoints (0, 1, 2, 4, 6, 24 hours) and carry out a serial dilution in PBS (to remove drug and to dilute bacteria to countable numbers).
5. Use the serial dilution to perform a Miles Misra—i.e. Add 3×10 μl spots of each dilution onto an agar plate. Incubate overnight and count colonies on spots in the morning.
6. Control: Subculture bacteria alongside samples but with no antibiotic added. Take aliquots from this at every time point (0, 1, 2, 4, 6, 24 hours) and perform Miles Misra on these too (as detailed in points 4 and 5 above).
7. After the first experiment, if the counts seen on Miles-Misra were zero, total viable counts were determined by spreading 200 μl in a streak down the centre of a TSB agar plate, waiting for the liquid to be absorbed and then spreading over the plate and checking for growth inhibition at the sight of the original streak.
8. The compound is considered bactericidal if the inoculum was reduced >3 log10 CFU/ml and bacteriostatic if inoculum was reduced by 0-3 log10 CFU/ml.
Three measurements were taken for each compound at each time point. These measurements were averaged and the standard deviation was also calculated.

Psueudomonas GH12 = assay: General MIC protocol, Gram negative; format: cell-based; settings: Pseudomonas
Description: General Minimum Inhibitory Concentration (MIC) Protocol
1. Grow up cultures of bacterial strains to be tested overnight.
2. Dilute down overnight cultures to concentration of 1×10^6 bacteria/ml (OD0.01) in Tryptic soy broth (TSB).
3. Add 100 μl of TSB media to column 2-column 12 in 96 well plate (keeping column 1 clear).
4. Make up compound to a concentration of 64 μg/ml in water (or alternatively to twice the chosen maximum concentration to be tested).
5. Add 100 μl of antibiotic solution to the 1st and 2nd columns.
6. Using a multichannel pipette take 100 μl from the 2nd column wells and pipette into 3rd column wells and repeat down the 96 well plate (remembering to include controls i.e. uninfected media and media with no antibiotic).
7. To each well (except uninfected control row H) add 100 μl of bacterially infected media at a concentration of 1×10^6/ml.
8. This dilutes down the concentration of the antibiotic by half (top dose is therefore 32 μg/ml in column 1) and also gives you a starting bacterial concentration of 5×10^5/ml.
9. Wrap plate with parafilm to prevent evaporation.
10. Leave at desired temperature (37° C. unless specified elsewhere) for 20 hours.
11. Next day check plates for growth and measure optical density (i.e. absorbance) at a wavelength of 600 nm (OD600).
An example of such a plate is shown in FIG. 1 where column A represents wells that receive the top dose 100 μl; column B represents wells that receive the top dose 100 μl+100 μl TSB; and column C represents wells that receive 100 μl TSB. Row H which is marked by a box labelled D represents a blank where the cells receive no bacteria.
The activity of the compound designated PP-A148 was tested against an extended panel of Klebsiella and Pseudomonas Gram-negative bacterial strains that have proven drug resistant difficult to treat. […] The minimum inhibitory concentration (MIC) was measured using the general MIC protocol given above.

O=C(O)c1cn(C2CC2)c2cc(N3CCNCC3)c(F)cc2c1=O [CIP, ciprofloxacin, reference compound]
Average (CFU/ml) ([1]; time-point 1 hours): 7000 CFU/ml | n = 1 (Log CFU/ml) ([1]; time-point 1 hours): 19000 Log CFU/ml | n = 2 (Log CFU/ml) ([1]; time-point 1 hours): 0 Log CFU/ml | Average (CFU/ml) ([1]; time-point 2 hours): 584 CFU/ml | n = 1 (Log CFU/ml) ([1]; time-point 2 hours): 1500 Log CFU/ml | n = 2 (Log CFU/ml) ([1]; time-point 2 hours): 0 Log CFU/ml | Average (CFU/ml) ([1]; time-point 4 hours): 10.7 CFU/ml | n = 1 (Log CFU/ml) ([1]; time-point 4 hours): 0 Log CFU/ml | n = 2 (Log CFU/ml) ([1]; time-point 4 hours): 30 Log CFU/ml | Average (CFU/ml) ([1]; time-point 6 hours): 0 CFU/ml | n = 1 (Log CFU/ml) ([1]; time-point 6 hours): 0 Log CFU/ml | n = 2 (Log CFU/ml) ([1]; time-point 6 hours): 0 Log CFU/ml | Average (CFU/ml) ([1]; time-point 24 hours): 4 CFU/ml | n = 1 (Log CFU/ml) ([1]; time-point 24 hours): 10 Log CFU/ml | n = 2 (Log CFU/ml) ([1]; time-point 24 hours): 0 Log CFU/ml | MIC (Psueudomonas GH12): 16 µg/mL (≈ 48.3 µM)
